Measurements from patent US4001272A, “Herbicidal 2-fluoro-4-halo-phenyl-4,5,6,7-tetrahydro-2H-isoindole-1,3-diones” (E. I. Du Pont de Nemours and Company, priority 1974, dated 1977).

What was measured:
Format in all cases: in vivo
green beans = assay: Test A: field test, crop response of green beans; details: seven weeks, 0 = no injury to 10 = complete kill
Text: (§1) In test A, soybeans, peanuts, lima beans, green beans and squash were planted in a field infested with the following weed seeds: crabgrass (Digitaria sanquinalis), foxtails (Setaria spp.), barnyardgrass (Echinochloa crusgalli), pigweed (Amaranthus spp.), ragweed (Ambrosia artemisiifolia), velvetleaf (Abutilon theophrasti), purslane (Portulaca oleracea) and flower-of-an-hour (Hibiscus trionum). A 50% wettable powder formulation of 2-(4-chloro-2-fluorophenyl)-4,5,6,7-tetrahydro-2H-isoindole-1,3-dione was applied in the form of an aqueous suspension at rates of 0.125, 0.25, 0.5 and 1.0 kg/ha, each treatment replicated twice. The plots were rated for percent weed control and crop response seven weeks after treatment. Crop response was expressed on a scale of 0 = no injury to 10 = complete kill.

lima beans = assay: Test A: field test, crop response of lima beans; details: seven weeks, 0 = no injury to 10 = complete kill
Text: as §1

[1] = test system: barnyardgrass (Echinochloa crusgalli); assay: Test A: field test, percent weed control of barnyardgrass; details: seven weeks after treatment
Text: as §1

[2] = test system: velvetleaf (Abutilon theophrasti); assay: Test A: field test, percent weed control of velvetleaf; details: seven weeks after treatment
Text: as §1

foxtails (Setaria spp.) = assay: Test A: field test, percent weed control of foxtails; details: seven weeks after treatment
Text: as §1

[3] = test system: purslane (Portulaca oleracea); assay: Test A: field test, percent weed control of purslane; details: seven weeks after treatment
Text: as §1

[4] = test system: crabgrass (Digitaria sanquinalis); assay: Test A: field test, percent weed control of crabgrass; details: seven weeks after treatment
Text: as §1

squash = assay: Test A: field test, crop response of squash; details: seven weeks, 0 = no injury to 10 = complete kill
Text: as §1

carrots = assay: Test B: overall spray in carrot field after weed emergence, crop response of carrots; details: six weeks after treatment, 0.1% Tween 20
Text: Test B involved a field sown to carrots and in which the following weed species emerged naturally: crabgrass (Digitaria sanquinalis), foxtails (Setaria spp.), barnyardgrass (Echinochloa crusgalli), pigweed (Amaranthus spp.), ragweed (Ambrosia artemisiifolia), velvetleaf (Abutilon theophrasti), smartweed (Polygonum spp.) and lambsquarters (Chenopodium album). Sixteen days after sowing, when all species of weeds had emerged, the plants were sprayed overall with a 50% wettable powder formulation of 2-(4-chloro-2-fluorophenyl)4,5,6,7-tetrahydro-2H-isoindole-1,3dione (Treatment I) in the form of an aqueous suspension, at rates of 0.5, 1.0, 2.0 and 4.0 kg/ha, and with 2-(4-chlorophenyl)-4,5,6,7-tetrahydro-2H-isoindole-1,3-dione (Treatment II) in the same form and at the same rates. The spray volume was 425 l/ha. The surfactant Tween 20* was added to all treatments in a concentration of 0.1% by weight. Six weeks after treatment, visual observations were made of percent weed control obtained and, for carrots, crop response.
*Tween 20 -- A trademark of ICI of America which is the reaction product of sorbitan monolaurate with an average of 20 moles of ethylene oxide.

O=C1C2=C(CCCC2)C(=O)N1c1ccc(Cl)cc1F [Treatment I, 2-(4-chloro-2-fluorophenyl)-4,5,6,7-tetrahydro-2H-isoindole-1,3-dione]
Crop Response, Green beans (green beans; 0.125 kg/ha): 2 | Crop Response, Green beans (green beans; 0.25 kg/ha): 2.5 | Crop Response, Green beans (green beans; 0.50 kg/ha): 8 | Crop Response, Green beans (green beans; 1.00 kg/ha): 8.5 | Crop Response, Lima beans (lima beans; 0.125 kg/ha): 0 | Crop Response, Lima beans (lima beans; 0.25 kg/ha): 1 | Crop Response, Lima beans (lima beans; 0.50 kg/ha): 4 | Crop Response, Lima beans (lima beans; 1.00 kg/ha): 8.5 | % Control, Barnyardgrass ([1]; 0.125 kg/ha): 45% | % Control, Barnyardgrass ([1]; 0.25 kg/ha): 82% | % Control, Barnyardgrass ([1]; 0.50 kg/ha): 98% | % Control, Barnyardgrass ([1]; 1.00 kg/ha): 99% | % Control, Velvetleaf ([2]; 0.125 kg/ha): 90% | % Control, Velvetleaf ([2]; 0.25 kg/ha): 99% | % Control, Velvetleaf ([2]; 0.50 kg/ha): 100% | % Control, Velvetleaf ([2]; 1.00 kg/ha): 100% | % Control, Foxtail (foxtails (Setaria spp.); 0.125 kg/ha): 40% | % Control, Foxtail (foxtails (Setaria spp.); 0.25 kg/ha): 82% | % Control, Foxtail (foxtails (Setaria spp.); 0.50 kg/ha): 95% | % Control, Foxtail (foxtails (Setaria spp.); 1.00 kg/ha): 99% | % Control, Purslane ([3]; 0.125 kg/ha): 82% | % Control, Purslane ([3]; 0.25 kg/ha): 97% | % Control, Purslane ([3]; 0.50 kg/ha): 100% | % Control, Purslane ([3]; 1.00 kg/ha): 100% | % Control, Crabgrass ([4]; 0.125 kg/ha): 60% | % Control, Crabgrass ([4]; 0.25 kg/ha): 94% | % Control, Crabgrass ([4]; 0.50 kg/ha): 99% | % Control, Crabgrass ([4]; 1.00 kg/ha): 99% | Crop Response, Squash (squash; 0.125 kg/ha): 2 | Crop Response, Squash (squash; 0.25 kg/ha): 2 | Crop Response, Squash (squash; 0.50 kg/ha): 6 | Crop Response, Squash (squash; 1.00 kg/ha): 9.5

O=C1C2=C(CCCC2)C(=O)N1c1ccc(Cl)cc1 [Treatment II, 2-(4-chlorophenyl)-4,5,6,7-tetrahydro-2H-isoindole-1,3-dione]
Crop Response, Carrots (carrots; 0.5 kg/ha): 4 | Crop Response, Carrots (carrots; 1.0 kg/ha): 4 | Crop Response, Carrots (carrots; 2.0 kg/ha): 4 | Crop Response, Carrots (carrots; 4.0 kg/ha): 4
